Experimental data reported in PubChem BioAssay (NCI).
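Tested at 5 concentrations; 48 h exposure; 96-well plates; endpoints linearly interpolated, else capped at highest concentration. Definition used: TGI = concentration required for complete inhibition of growth.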

What was measured:
Assay in all cases: growth of human tumour cells (NCI), 48 h
[1] = test system: SF-539 CNS
[2] = test system: EKVX NSCLC
[3] = test system: OVCAR-3 ovarian
[4] = test system: UO-31 renal
[5] = test system: BT-549 breast
[6] = test system: KM12 colon
[7] = test system: SF-295 CNS
[8] = test system: T-47D breast
[9] = test system: ACHN renal
[10] = test system: HS 578T breast
[11] = test system: HOP-92 NSCLC
[12] = test system: K-562 leukemia

Compound | TGI [1] [µM] | TGI [2] [µM] | TGI [3] [µM] | TGI [4] [µM] | TGI [5] [µM] | TGI [6] [µM] | TGI [7] [µM] | TGI [8] [µM] | TGI [9] [µM] | TGI [10] [µM] | TGI [11] [µM] | TGI [12] [µM]
O=C1NC(=O)c2ccccc2/C1=C/c1ccc2c(c1)OCO2 | 46.7 | > 100 | 25 | 32.4 | 50.8 | 41 | 83.1 | > 100 | 34.3 | 47.2 | > 100 | –
COc1ccc(C2C3=C(N=C4SC(C(C)=O)=C(C)N42)c2ccccc2CC3)cc1 (configuration not stated) | > 100 | – | > 100 | > 100 | > 100 | > 100 | > 100 | > 100 | > 100 | > 100 | > 100 | –
COc1ccccc1-n1c(=O)n(C)c(=O)n1C(C)(C)C | > 100 | > 100 | > 100 | > 100 | > 100 | > 100 | – | > 100 | – | > 100 | – | > 100
N#CC(CCN1CCC(Nc2ccccc2)(c2nnnn2C2CCCCC2)CC1)(c1ccccc1)c1ccccc1 | > 100 | > 100 | > 100 | > 100 | > 100 | > 100 | > 100 | – | > 100 | > 100 | – | > 100
CSC(SC)=C(C#N)C(=O)Nc1cccc(Cl)c1 | > 100 | > 100 | – | – | > 100 | > 100 | > 100 | – | > 100 | > 100 | 55.6 | > 100
COC(=O)C1=C(OC(=O)/C(=C/c2ccccc2)c2ccc(OC)cc2)C(C(=O)OC)[C@@]2(O)[C@@H](C(=O)OC)[C@H](C)C[C@@H]1[C@@H]2C(=O)OC (some centres not stated) | > 100 | > 100 | > 100 | > 100 | > 100 | > 100 | > 100 | > 100 | > 100 | 99.3 | – | > 100
CC1=NN(c2cccc(Cl)c2)C2(C1=Cc1ccc(O)cc1)C(Cl)C(=O)N2c1nc2ccccc2s1 (configuration not stated) | > 100 | > 100 | > 100 | 30.6 | – | 65 | 57 | 97.8 | 52.7 | > 100 | 37.5 | 72.7
O=c1[nH]c(=O)n(C2CC(O)C(CO)O2)cc1Oc1ccccc1 (configuration not stated) | – | > 100 | > 100 | > 100 | > 100 | > 100 | > 100 | > 100 | > 100 | > 100 | – | > 100
CN(Cc1cnc2nc(N)nc(N)c2n1)c1ccc(C(=O)NC23CC4CC(CC(C4)C2)C3)cc1 | – | 32.5 | 30.5 | 24.1 | 31.1 | 24.8 | 21.1 | 39 | 11.5 | 31.9 | – | 65.8
COc1cc(/C=C2\CC/C(=C\c3cc(OC)c(O)c(OC)c3)C2=O)cc(OC)c1O | > 100 | 16.5 | > 21.8 | > 26.7 | 7.44 | 4.52 | > 100 | 8.02 | 6.58 | 15.8 | – | 14.2
